In article PMC9663578, “A fluorogenic probe for predicting treatment response in non-small cell lung cancer with EGFR-activating mutations” (Nature Communications, 2022):
Values joined by “and” are separate entries in the source; they are usually repeats but may differ in a detail not shown here. Equal entries are not always repeated.

How the values were obtained:
[1] = system: A431 cells; test: FACS assay in cultured cells; conditions: for HX103 dose-dependent signal (Supplementary Fig. 18): 20 µM = 100
Experimental: Briefly, the cultured cells were seeded on the petri dish and counted using Count star BioMed automated cell counter. Around 10^6 live-cells were collected and were pelleted (2000×g, 3 min), followed by washing with PBS (2x). Cells were then resuspended in PBS buffer containing 0.1% BSA (1 × 10^6 cells/mL). […] The cell suspension was resuspended in PBS and analyzed with a FACSVerse^TM flow cytometer (BD Biosciences, LSRFortessa). About 10,000 events per tube were analyzed and the mean fluorescence intensity was detected and analyzed.
(§1) For the FACS assay with EGFR antibody, around 10^6 live-cells were collected and washed with PBS (2x). The cells were fixed by 400 µL 4% paraformaldehyde for 15 min at room temperature, followed by permeabilization with 0.1% Triton X-100 for 10 min and blocking with 5% BSA for 30 min. […] The cells were then washed with 0.5% BSA/PBS (3x) and resuspended in 400 µL of 0.1% BSA/PBS. […] The resuspended cell suspension was then analyzed on a FACSVerseTM flow cytometer (BD Biosciences, LSRFortessa). Nonspecific fluorescence binding was omitted by Rabbit mAb IgG isotype control (#3900, CST, 1:100) and the corresponding mean fluorescence was subtracted from the signal measured with each primary antibody. About 10,000 events per tube were analyzed and the mean fluorescence intensity was detected and analyzed.
(§2) Subsequently, the treated cells were incubated for 30 min at 37 °C, followed by washing with PBS buffer three times. […] Finally, the co-stained cells were washed with 0.5% BSA/PBS for three times and resuspended in 400 µL of 0.1% BSA/PBS. The obtained cell suspension was ready for analysis. Nonspecific fluorescence binding was omitted by Rabbit mAb IgG isotype control (#3900, CST, 1:100) as described above.
(§3) Nonspecific fluorescence binding was omitted by Rabbit mAb IgG isotype control (#3900, CST, 1:100). […] After incubation for another 30 min at room temperature, the co-stained cells were washed with 0.5% BSA/PBS for three times and resuspended in 400 µL of 0.1% BSA/PBS. The obtained cell suspension was ready for analysis. Nonspecific fluorescence binding was omitted by Rabbit mAb IgG isotype control (#3900, CST, 1:100) as described above.
(§4) The cells were seeded on the petri dish and cultured at the normal condition with 10% FBS, and that was changed to serum-free condition for 24 h when the cells proliferated at ~80% confluence. […] Nonspecific fluorescence binding was omitted by Rabbit mAb IgG isotype control (#3900, CST, 1:100) as described above.

[2] = biological target: T1, EGFR wild-type (Homo sapiens, UniProt P00533); test: Kinase inhibition assay (fluorescent mobility-shift assay); type: biochemical; set-up: Kinase activity: unit not given here; conditions: for Kinase activity: EGFR WT, n=1-3
T1 construct: Recombinant human EGFR (amino acids 668–1210, #PR7295B); purchased Thermo Fisher PR7295B

[3] = biological target: T2, EGFR 19del (Homo sapiens, UniProt P00533, DEL746-750); test: as above; type: biochemical; set-up: Kinase activity: unit not given here; conditions: for Kinase activity: 19del, n=1-3
T2 construct: purchased Thermo Fisher PV6179

[4] = system: PC-9 cells; test: MTT cytotoxicity assay; type: cell-based; conditions: Homo sapiens, EGFR 19del, 48 h, n=3
[5] = system: PC-9 cells; test: FACS assay in cultured cells; conditions: for HX103 dose-dependent signal (Supplementary Fig. 18): 20 µM = 100
Experimental: The FACS assay was performed according to the reported literatures[67],[68]. Briefly, the cultured cells were seeded on the petri dish and counted using Count star BioMed automated cell counter. Around 10^6 live-cells were collected and were pelleted (2000×g, 3 min), followed by washing with PBS (2x). Cells were then resuspended in PBS buffer containing 0.1% BSA (1 × 10^6 cells/mL). […] The cell suspension was resuspended in PBS and analyzed with a FACSVerse^TM flow cytometer (BD Biosciences, LSRFortessa). About 10,000 events per tube were analyzed and the mean fluorescence intensity was detected and analyzed.
as §1, §2, §3, §4

[6] = biological target: T1, EGFR wild-type; test: Fluorescence turn-on response / titration of HX103 with recombinant EGFR;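 as to Fluorescence intensity at 570 nm: 100% is HX103 fluorescence with wild-type EGFR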; type: binding; conditions: for Fluorescence intensity at 570 nm: n=1-3; for Fluorescence intensity, Wild-type: Fig. 2c
Experimental: (d) Fluorescence spectra change of HX103 (5 µ M) with increasing concentration of EGFR L858R
(e) Fluorescence spectra change of HX103 (5 µ M ) with
increasing concentration of EGFR 19del (0 to 6 µM) in PBS buffer. (f) Titration curve of HX103
(5 µM) with increasing concentration of EGFRs (0 to 6 µM). The apparent binding affinity (Kd)
The fluorescence titration curve was fitted on one -
site specific binding model. I and I0 represent the intensities of HX103 at 570 nm in the presence
and absence of protein. Data represent average val ues ± SD, n = 3 independent experiments per
dissolved in dimethyl sulfoxide (DMSO) to obtain stock solutions (10 mM). The prepared stock
solution was diluted in sodium phosphate buffer (PBS, 1 M, pH=7.4) to obtain the desired final
concentration solution, containing 0.1% (v/v) DMSO as a cosolvent.
and emission fluorescence spectra of the solution before/after addition o f different concentration
Data analysis：The obtained fluorescence intensity at 570 nm (Excitation wavelength was 440
nm) in each sample was normalized by using the fluorescence intensity of HX103 in the presence
of EGFR. Specifically, the fluorescence intensity of HX103 in the presence of EGFR wild-type
was set at 100% to normalized that of the remaining samples.

[7] = HX103 5 µM, 30 min, replicates n=1-3

T1 sequence (P00533 668-1210): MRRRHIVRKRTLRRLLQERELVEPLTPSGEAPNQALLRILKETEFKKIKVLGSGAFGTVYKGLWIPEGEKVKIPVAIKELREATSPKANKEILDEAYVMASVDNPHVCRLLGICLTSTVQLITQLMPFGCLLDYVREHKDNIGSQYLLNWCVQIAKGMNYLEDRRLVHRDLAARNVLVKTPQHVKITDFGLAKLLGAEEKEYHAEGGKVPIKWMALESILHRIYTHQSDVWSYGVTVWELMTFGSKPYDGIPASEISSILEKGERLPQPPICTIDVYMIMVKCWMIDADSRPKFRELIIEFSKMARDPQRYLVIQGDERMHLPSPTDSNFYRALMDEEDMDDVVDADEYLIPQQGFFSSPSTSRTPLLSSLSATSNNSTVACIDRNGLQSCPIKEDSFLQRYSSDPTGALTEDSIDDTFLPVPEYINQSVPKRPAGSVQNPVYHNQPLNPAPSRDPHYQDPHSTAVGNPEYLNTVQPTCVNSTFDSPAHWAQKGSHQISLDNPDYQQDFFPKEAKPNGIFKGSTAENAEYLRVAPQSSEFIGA
T2 sequence (P00533 with tags, fused parts or gaps DEL746-750): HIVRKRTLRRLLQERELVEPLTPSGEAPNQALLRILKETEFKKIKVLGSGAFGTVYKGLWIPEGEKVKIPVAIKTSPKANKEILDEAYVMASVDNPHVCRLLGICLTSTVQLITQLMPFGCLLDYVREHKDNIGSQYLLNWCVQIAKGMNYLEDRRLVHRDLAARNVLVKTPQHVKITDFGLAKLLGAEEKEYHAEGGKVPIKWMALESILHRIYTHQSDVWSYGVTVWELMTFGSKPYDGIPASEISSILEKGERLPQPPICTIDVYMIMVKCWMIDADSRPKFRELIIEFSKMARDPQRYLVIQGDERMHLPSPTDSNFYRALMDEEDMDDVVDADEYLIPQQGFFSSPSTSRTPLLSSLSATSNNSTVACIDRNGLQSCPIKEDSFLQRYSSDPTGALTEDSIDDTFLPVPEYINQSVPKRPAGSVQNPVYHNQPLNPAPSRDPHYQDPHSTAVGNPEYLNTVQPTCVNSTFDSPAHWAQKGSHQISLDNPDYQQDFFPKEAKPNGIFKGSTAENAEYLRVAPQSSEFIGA

Structure (SMILES): COc1cc2c(Nc3ccc(F)c(Cl)c3)ncnc2cc1OCCCNc1ccc(S(=O)(=O)N(C)C)c2nonc12 [HX103]
- EGFR(+) HX103 (+) (%) AVE ([1]; A431, AVE of n=3): 62.105%
- HX103 (+) (%) AVE ([1]; A431, AVE of n=3): 75.74%
- HX103 dose-dependent signal (Supplementary Fig. 18) ([1]; A431, HX103 0.37 µM): 15.6053 and 17.5852 and 16.5942
- HX103 dose-dependent signal (Supplementary Fig. 18) ([1]; A431, HX103 1.1 µM): 27.0427 and 32.7871 and 29.9049
- HX103 dose-dependent signal (Supplementary Fig. 18) ([1]; A431, HX103 3.3 µM): 44.6928 and 49.6432 and 47.158
- HX103 dose-dependent signal (Supplementary Fig. 18) ([1]; A431, HX103 10 µM): 77.4475 and 86.2684 and 81.868
- HX103 dose-dependent signal (Supplementary Fig. 18) ([1]; A431, HX103 15 µM): 96.5825 and 89.3875 and 92.975
- HX103 dose-dependent signal (Supplementary Fig. 18) ([1]; A431, HX103 20 µM): 100
- HX103 signal (Supplementary Fig. 7) ([1]; A431, HX103 alone or with Gefitinib, replicates n=1-3): 114.212 and 76.0875 and 109.7
- EGFR(+) HX103 (+) (%) ([1]; A431, replicates n=1-3): 55.07% and 64.605% and 66.64%
- HX103(+) (%) ([1]; A431, replicates n=1-3): 96.31% and 66.39% and 64.52%
- normalized MFI of HX103 labeling [1, 7]: 83.2618% and 101.288% and 92.2747%
- EGFR(+) HX103 (+) (%) ([1]; HX103 5 µM, replicates n=1-3): ~ 60% and 64.605% and 66.64% and 55.07%
- Kinase activity ([2]; Log [HX103 (M)] -7): 3.448 and 5.933 and 4.591
- Kinase activity ([2]; Log [HX103 (M)] -7.5): 17.07 and 12.53 and 15.46
- Kinase activity ([2]; Log [HX103 (M)] -8): 28.39 and 28.36 and 28.22
- Kinase activity ([2]; Log [HX103 (M)] -8.5): 52.62 and 55.81 and 54.21
- Kinase activity ([2]; Log [HX103 (M)] -9): 85.4 and 76.53 and 77.56
- IC50 ([2]; n = 3): 4 nM
- Kinase activity ([3]; Log [HX103 (M)] -7.5): 4.826 and 8.074 and 4.95
- Kinase activity ([3]; Log [HX103 (M)] -8): 14.14 and 14.3 and 14.2
- Kinase activity ([3]; Log [HX103 (M)] -8.5): 33.15 and 25.38 and 27.26
- Kinase activity ([3]; Log [HX103 (M)] -9): 51.95 and 59.57 and 58.76
- IC50 ([3]; n = 3): 1.3 nM
- IC50 [4]: 1800 nM
- normalized MFI of HX103 labeling [5, 7]: 81.9742% and 91.6309% and 86.8026%
- EGFR(+) HX103 (+) (%) ([5]; HX103 5 µM, replicates n=1-3): 64.51% and 67.13% and 48.39%
- EGFR(+) HX103 (+) (%) AVE ([5]; PC-9, AVE of n=3): 60.01%
- HX103 (+) (%) AVE ([5]; PC-9, AVE of n=3): 59.6433%
- HX103 dose-dependent signal (Supplementary Fig. 18) ([5]; PC-9, HX103 0.37 µM): 18.3072 and 15.0075 and 16.6544
- HX103 dose-dependent signal (Supplementary Fig. 18) ([5]; PC-9, HX103 3.3 µM): 59.5109 and 51.9447 and 55.7208
- HX103 dose-dependent signal (Supplementary Fig. 18) ([5]; PC-9, HX103 10 µM): 68.1021 and 78.5978 and 73.3469
- HX103 dose-dependent signal (Supplementary Fig. 18) ([5]; PC-9, HX103 15 µM): 80.0389 and 87.1198 and 83.5744
- HX103 dose-dependent signal (Supplementary Fig. 18) ([5]; PC-9, HX103 20 µM): 100
- HX103 signal (Supplementary Fig. 7) ([5]; PC-9, HX103 alone or with Gefitinib, replicates n=1-3): 103.242 and 99.7186 and 97.0394
- EGFR(+) HX103 (+) (%) ([5]; PC-9, replicates n=1-3): 48.39% and 64.51% and 67.13%
- HX103(+) (%) ([5]; PC-9, replicates n=1-3): 59.69% and 66.68% and 52.56%
- Fluorescence intensity at 570 nm ([6]; Fig. 2b, EGFR+Afa.+HX103): 40.8352 and 40.5015 and 39.6477
- Fluorescence intensity at 570 nm ([6]; Fig. 2b, EGFR+Compound 4+HX103): 34.8404 and 34.012 and 33.2139
- Fluorescence intensity at 570 nm ([6]; Fig. 2b, EGFR+Gef.+HX103): 52.1782 and 56.1359 and 43.6715
- Fluorescence intensity at 570 nm ([6]; Fig. 2b, EGFR+HX103): 102.993 and 106.909 and 90.0974
- Fluorescence intensity, Wild-type ([6]; wavelength 666 nm): 3857.08
- Fluorescence intensity, Wild-type ([6]; wavelength 669 nm): 3668.59
- Fluorescence intensity, Wild-type ([6]; wavelength 671 nm): 3481.17
- Fluorescence intensity, Wild-type ([6]; wavelength 673 nm): 3297.98
- Fluorescence intensity, Wild-type ([6]; wavelength 676 nm): 3120.62
- Fluorescence intensity, Wild-type ([6]; wavelength 678 nm): 2950.6
- Fluorescence intensity, Wild-type ([6]; wavelength 681 nm): 2789.44
- Fluorescence intensity, Wild-type ([6]; wavelength 683 nm): 2638.8
- Fluorescence intensity, Wild-type ([6]; wavelength 686 nm): 2500.58
- Fluorescence intensity, Wild-type ([6]; wavelength 688 nm): 2376.72
- Fluorescence intensity, Wild-type ([6]; wavelength 690 nm): 2269.12
- Fluorescence intensity, Wild-type ([6]; wavelength 693 nm): 2178.16
- Fluorescence intensity, Wild-type ([6]; wavelength 695 nm): 2100.14
- Fluorescence intensity, Wild-type ([6]; wavelength 698 nm): 2030.74
- Fluorescence intensity, Wild-type ([6]; wavelength 700 nm): 1965.66
- Fluorescence intensity at 570 nm ([6]; Fig. 2d, HX103 with EGFR WT): 95.7649 and 96.5955 and 107.639
- fluorescence turn-on response ([6]; HX103 5 µM in PBS buffer (0.1% DMSO), 570 nm): high fluorescence
- Kd ([6]; HX103 5 µM, EGFR 0 to 6 µM in PBS, one-site specific binding model, read-out: apparent binding affinity (Kd)): 2700 ± 400 nM
